Data taken from patent publication US10772866B2 (UNIVERSITY-INDUSTRY COOPERATION GROUP OF KYUNG HEE …, priority 2013, dated 2020).

Test system: CA1 neuron region of hippocampal tissue
Experiment: Crystal violet staining of CA1 neuron region of hippocampal tissue after transient global ischemia
Format: in vivo, CD1 mice
Details: mice after transient global ischemia; fluoxetine, vitamin C alone or together at trace amount; vs normal and negative control groups
Description: Eight-week old adult male CD1 mice with a weight of 33 g to 37 g were induced to be anesthetized by injecting with 2% isoflurane under an air condition, in which nitrous oxide and oxygen were in a 70:30 ratio, and the mice were induced to have transient global ischemia according to the previous disclosure while the mice were maintained in the anesthetized state with 1% isoflurane (Kim, D. H. et. al, 2009. Food Chem. Toxicol. 47, 1473-1479.). The thus-prepared mice with transient global ischemia put into cages (4 mice/cage) were given ad libitum access to water and foods, and bred in an environment of a constant temperature (23±1° C.) and continuous humidity (60±10%) under a 12 hour light/dark cycle.
Specifically, the brains obtained and stored by performing in the same manner as in <Example 6> were cut into 30 μm coronal plane sections, placed on gelatin-coated slides, stained with crystal violet, and dehydrated by adding 70%, 80%, 90%, and 100% alcohol in this order. Upon dehydration, xylene was added thereto, covered with coverslips, and the CA1 neuron region of hippocampal tissue was observed.

Row | SMILES | recovery of hippocampal tissue injury (CA1 neuron region, preserved cells, FIGS. 7 and 8)
1 | CNCCC(Oc1ccc(C(F)(F)F)cc1)c1ccccc1 (centres unmarked) [fluoxetine] | a recovery similar to that of the negative control group
2 | O=C1O[C@H]([C@@H](O)CO)C(O)=C1O [vitamin C, ascorbic acid] | a recovery similar to that of the negative control group
